From a melting point compilation (Tetko et al.) come the findings set out here.

Each structure is given as a SMILES string.

Compound `NS(=O)(=O)c1cccc(-c2nnco2)c1` showed a melting point of 184 to 186 °C.

For the compound `Nc1cc(-c2cc(Cl)cc(Cl)c2)[nH]n1`, the melting point is 159 to 161 °C.

For the compound `NS(=O)(=O)c1cc(F)cc(C(=O)O)c1Br`, the melting point was in the range of 207 to 209 °C.

On to `O=C(O)c1cnoc1-c1ccc(Cl)cc1`, for which the melting point fell in the range of 205 to 207 °C.

Turning to `COc1ccc(C=O)cc1OCC(C)C`, the melting point lay in the range of 40 to 42 °C.

For the compound `Nc1ccc2c(c1)oc1ccccc12`, the melting point was 89 to 91 °C.

The compound `COC(=O)N(C)c1ccc(O)cc1` registered a melting point of 99 to 101 °C.

Compound `Clc1ccc(OC2CCCNC2)nc1` (stereo not drawn) gave a melting point of 64 to 66 °C.

The compound `O=C(NC(Cc1cccnc1)C(=O)O)c1ccccc1` (stereo not drawn) returned a melting point of 176 to 178 °C.

As for `O=C(O)C1CCCc2[nH]ncc21` (stereo not drawn), the melting point lay within 176 to 178 °C.

`COC(=O)c1ccc(F)c(N)c1` showed a melting point of 67 to 69 °C.

Turning to `CN1CCN(C(=O)CO)CC1`, the melting point fell in the range of 56 to 58 °C.

`CC(C)CC(=O)Nc1ccc(C(=O)O)cc1F` yielded a melting point of 257 to 259 °C.

As for `N#CCCn1cc(C(N)=O)cn1`, the melting point is 179 to 181 °C.

`COc1ccc(C(=O)O)nc1I` registered a melting point of 189 to 191 °C.

With `O=C(O)COc1ccc(C(F)(F)F)cc1`, the melting point lay within 184 to 186 °C.

For the compound `CC(C)c1cc(C(=O)O)c2ccccc2n1`, the melting point is 141 to 143 °C.

The compound `O=C(CCCl)NCCc1ccccc1` yielded a melting point of 56 to 58 °C.

Regarding `O=C(O)c1cc([N+](=O)[O-])cc(S(=O)(=O)Cl)c1`, the melting point fell in the range of 162 to 164 °C.

`COc1cccc(-c2noc(SCC(=O)O)n2)c1` returned a melting point of 103 to 105 °C.

Compound `Cc1nc(S)sc1CC(=O)O` had a melting point of 205 to 207 °C.

Regarding `N#CCc1c[nH]c2cc(F)ccc12`, the melting point was 52 to 54 °C.

Compound `O=c1cc(CCl)c2c(ccc3ccccc32)o1` yielded a melting point of 119 to 120 °C.

On to `O=C(O)c1ccc(-c2noc(=O)[nH]2)cc1`, for which the melting point lay in the range of 354 to 356 °C.

In turn, `NC(=O)C1CCCN(Cc2ccccc2N)C1` (stereo not drawn) registered a melting point of 133 to 135 °C.

For the compound `OCc1ccccc1Oc1ccc(I)cc1`, the melting point was in the range of 65 to 67 °C.

As to `CC1(c2ccc(F)cc2F)NC(=O)NC1=O` (stereo not drawn), the melting point was 194 to 196 °C.

Compound `Cc1ccn2ncc(C(=O)O)c2n1` displayed a melting point of 256 to 258 °C.

Take `CN(CC(=O)O)C(=O)c1ccc(Br)o1`: the melting point lay within 110 to 112 °C.

In turn, `CS(=O)(=O)NCc1cccc(Br)c1` registered a melting point of 66 to 68 °C.

The compound `Nc1ccc2cccc(Cl)c2n1` registered a melting point of 165 to 167 °C.

Take `CCN1CCN(CC(=O)O)C(=O)C1=O`: the melting point is 200 to 202 °C.

`NC(=O)Cn1ncc(Cl)c(Cl)c1=O`: the melting point lay within 245 to 247 °C.

Take `OCC1CSCCN1` (stereo not drawn): the melting point is 84 to 86 °C.

On to `CC(C)C(Br)C(=O)Nc1cc(Cl)ccc1Cl` (stereo not drawn), for which the melting point lay within 126 to 128 °C.

Compound `Cc1nc2n(n1)CC(N)CC2` (stereo not drawn) yielded a melting point of 60 to 62 °C.

As for `CCN(CC)S(=O)(=O)c1ccc(Cl)nc1`, the melting point was in the range of 82 to 84 °C.

For `COc1ccc(N)cc1S(=O)(=O)N1CCOCC1`, the melting point lay in the range of 131 to 133 °C.

As to `Cc1nn(C)cc1C(=O)O`, the melting point is 190 to 192 °C.

For the compound `CC(Cl)C(=O)NC(C)c1ccc(Cl)cc1` (stereo not drawn), the melting point was 127 to 129 °C.

Consider `CN(C)S(=O)(=O)c1ccc(NCCO)c(C(=O)O)c1`, for which the melting point lay in the range of 176 to 178 °C.

The compound `Cc1c(C)n(Cc2ccco2)c2ncnc(N)c12` had a melting point of 180 to 182 °C.

`CC(C)(C)Cc1cc(N)n[nH]1` returned a melting point of 106 to 108 °C.

`CS(=O)(=O)c1ccc(Cl)c(C(=O)O)c1` yielded a melting point of 183 to 185 °C.

Regarding `Cc1nc(CNc2ccc(F)cc2)cs1`, the melting point was 76 to 78 °C.

Consider `O=C(O)CCNC(=O)c1ccc(F)cc1`, for which the melting point fell in the range of 133 to 135 °C.

The compound `Cn1c(-c2ccccn2)cccc1=O` had a melting point of 66 to 68 °C.

Turning to `NC1CCN(CC(=O)Nc2ccccc2)CC1`, the melting point was 75 to 77 °C.

In turn, `CSc1ccncc1N` yielded a melting point of 78 to 80 °C.

The compound `O=C1C(Br)CCN1c1ccc(Cl)cc1` (stereo not drawn) gave a melting point of 83 to 85 °C.

In the case of `Nc1ccc(Cl)c(C(=O)NC2CCCCC2)c1`, the melting point lay within 159 to 161 °C.

`O=C(O)c1cc(S(=O)(=O)NCc2cccnc2)c(Cl)cc1Cl` had a melting point of 245 to 247 °C.

On to `NC(=O)c1ccc(F)cc1Br`, for which the melting point is 163 to 165 °C.

`NC1(c2nnn[nH]2)CCC1`: the melting point lay in the range of 254 to 256 °C.

Compound `O=C(O)CCn1cc([N+](=O)[O-])cn1` had a melting point of 143 to 145 °C.

`Nc1onc(-c2ccc(Br)s2)c1-c1ccc(F)cc1` had a melting point of 141 to 143 °C.

Take `Cn1cc(C(=O)O)c(C(C)(C)C)n1`: the melting point was 140 to 142 °C.

For `Cc1[nH]n(C(N)=S)c(=O)c1CCO`, the melting point lay within 153 to 155 °C.

`O=C(NO)C1CCCC1` returned a melting point of 107 to 109 °C.

`Cc1cccc([N+](=O)[O-])c1I` gave a melting point of 67 to 69 °C.

`CC1(n2cc(C=O)cn2)CCS(=O)(=O)C1` (stereo not drawn) gave a melting point of 84 to 86 °C.

`O=C(O)c1oc2ccccc2c1COc1ccccc1` yielded a melting point of 163 to 165 °C.

In turn, `CC(C)N(C)S(=O)(=O)c1ccc(Cl)c(C(=O)O)c1` showed a melting point of 154 to 156 °C.

For the compound `O=C(O)c1c[nH]c2ncccc12`, the melting point lay within 213 to 215 °C.

As to `Cc1noc(C(C)C)c1C(=O)O`, the melting point fell in the range of 147 to 151 °C.

The compound `Nc1cc2c(cc1F)CCC(=O)N2` yielded a melting point of 174 to 176 °C.

In turn, `COc1ccc(CNc2cnn(C)c2)c(OC)c1` displayed a melting point of 81 to 83 °C.

As for `Cn1ncc2c(=O)[nH]nnc21`, the melting point lay within 152 to 154 °C.

In turn, `Cn1nc(CC(=O)O)c2ccccc2c1=O` showed a melting point of 189 to 191 °C.

`CC(C)c1cc(C(=O)O)c2cnn(C(C)C)c2n1` registered a melting point of 144 to 146 °C.

Turning to `Cc1nc(CCC(=O)O)oc1-c1ccccc1`, the melting point fell in the range of 162 to 164 °C.

Regarding `Nc1nonc1C(=O)O`, the melting point lay in the range of 214 to 216 °C.

The compound `Cc1cc(C(=O)CCl)c(C)n1-c1ccon1` yielded a melting point of 87 to 89 °C.

`O=C(O)c1ccc2c(c1)C(=O)N(CCc1ccccc1)C2=O`: the melting point lay in the range of 215 to 217 °C.

For `COC(=O)c1ccc(I)cn1`, the melting point lay within 129 to 131 °C.

Turning to `O=Cc1ccccc1OCc1ccncc1`, the melting point is 65 to 67 °C.

`CC(C)(C)OC(=O)NCCN=C=O` showed a melting point of 102 to 104 °C.

As to `O=C(O)c1cc(S(=O)(=O)N2CCCCC2)ccc1N1CCCCC1`, the melting point fell in the range of 143 to 145 °C.

In the case of `Nc1sc2c(c1C(=O)O)CCSC2`, the melting point is 169 to 171 °C.

Regarding `Cc1ccc(-n2c(S)nnc2-c2ccc(Cl)cc2)cc1`, the melting point lay within 141 to 143 °C.

`O=C(Nc1cocn1)OCC(F)(F)F` gave a melting point of 131 to 133 °C.

`O=C(NC(c1nn[nH]n1)C1CC1)c1ccccc1` (stereo not drawn) returned a melting point of 189 to 191 °C.

For `COc1ccc2c(c1)C1(CC2)NC(=O)NC1=O` (stereo not drawn), the melting point fell in the range of 189 to 191 °C.

Compound `CN1N=C(C(=O)O)CCC1=O` showed a melting point of 156 to 158 °C.

For `CC(C)n1ncc2cc(S(N)(=O)=O)ccc21`, the melting point fell in the range of 168 to 170 °C.

`N#Cc1oc2ccccc2c1O` yielded a melting point of 138 to 140 °C.

`CCCCn1c(N)c(NC)c(=O)[nH]c1=O` yielded a melting point of 201 to 203 °C.

For `CN(C)c1cc(C(F)(F)F)nc(Cl)n1`, the melting point lay within 106 to 108 °C.

Turning to `O=C(O)Cc1ccc(S(=O)(=O)N2CCCC2)s1`, the melting point lay within 262 to 264 °C.

With `Cc1noc(C)c1COc1ccc(C(=O)O)cc1`, the melting point fell in the range of 224 to 226 °C.

In turn, `O=C1CCC(O)(C(F)(F)F)CC1` yielded a melting point of 123 to 125 °C.

Compound `Cc1nccn1-c1ccc(C#N)cn1` registered a melting point of 213 to 215 °C.

As to `Clc1noc(-c2ccoc2)n1`, the melting point is 48 to 50 °C.

With `Cc1cc(C)nc(SCC(=O)O)n1`, the melting point was in the range of 130 to 132 °C.

In turn, `C=CCC(NC(=O)OCc1ccccc1)c1ccccc1` (stereo not drawn) returned a melting point of 65 to 67 °C.

`O=C(O)CNC(=O)NCc1cccc([N+](=O)[O-])c1` displayed a melting point of 153 to 155 °C.

Compound `O=C(O)C1CCCN1c1ncccn1` (stereo not drawn) returned a melting point of 139 to 141 °C.

Compound `COC(=O)c1cccc(N)c1O` returned a melting point of 84 to 86 °C.

Consider `Cc1nc2c(C(N)=O)cnn2c(C)c1CCC(=O)O`, for which the melting point lay within 282 to 284 °C.

On to `COc1cc(OC)c(S(=O)(=O)Cl)cc1Br`, for which the melting point is 193 to 195 °C.

Turning to `Cc1nc(-c2ccccc2Cl)sc1C(=O)O`, the melting point is 217 to 219 °C.

`CNC(=O)CN1CCc2ccc(N)cc21` gave a melting point of 143 to 145 °C.

Compound `O=S(=O)(Cl)c1c(Cl)ccc2c(Cl)ccnc12` returned a melting point of 155 to 157 °C.

With `Cc1nc(NC(=N)N)nc2ccccc12`, the melting point fell in the range of 339 to 341 °C.

Turning to `NC(=O)Cn1ccc(N)n1`, the melting point was 112 to 114 °C.

Compound `CCOC(=O)c1ncon1` had a melting point of 31 to 33 °C.

The compound `Cc1nn(-c2ccccc2Cl)c2sc(C(=O)O)cc12` displayed a melting point of 56 to 58 °C.

The compound `ON=Cc1ccc(OCc2ccccc2)cc1` registered a melting point of 109 to 111 °C.

In the case of `O=C(O)c1cc(-c2ccco2)nc2onc(C3CC3)c12`, the melting point fell in the range of 215 to 217 °C.

Take `O=C(O)C1CC1[N+](=O)[O-]` (stereo not drawn): the melting point is 123 to 125 °C.

Take `CC(C)C(Br)C(=O)N1CCOCC1` (stereo not drawn): the melting point was in the range of 71 to 73 °C.

As for `CC(C)(C)Oc1ccc(C(=O)O)cn1`, the melting point is 139 to 141 °C.

Compound `CCOc1c(N)cc(Cl)cc1Br` showed a melting point of 45 to 47 °C.

`CC(C)(C)S(=O)(=O)Cc1cccc(N)c1` displayed a melting point of 175 to 177 °C.

`O=C(O)c1cc(S(=O)(=O)Cl)ccc1Br`: the melting point fell in the range of 115 to 117 °C.

`Cc1cc(C(=O)c2cccnc2)ccc1F`: the melting point lay in the range of 86 to 88 °C.

`NNC(=O)Cc1ccc(F)cc1` returned a melting point of 129 to 131 °C.

With `CSc1snc(O)c1C#N`, the melting point was 230 to 232 °C.

`O=C(O)c1cnc(Cl)c([N+](=O)[O-])c1` yielded a melting point of 126 to 128 °C.

With `Cc1c(Cl)cnc(Cl)c1C#N`, the melting point lay within 76 to 78 °C.

`CC(C)Oc1ccc(C(=O)O)cc1N` had a melting point of 115 to 117 °C.

In turn, `Cc1c(C(=O)O)nnn1C1CCN(C(=O)OC(C)(C)C)CC1` showed a melting point of 179 to 181 °C.

As to `CS(=O)(=O)N1CCc2ccccc2C1CC(=O)O` (stereo not drawn), the melting point is 126 to 128 °C.
